Data set [1] addresses T1, human TRPV1 receptor (hTRPV1) (Homo sapiens, UniProt Q8NER1).
T1 construct: expressed in transfected cells
In words: Capsaicin activation assay (Ca2+ influx, FLIPR). The class given is cell-based. Particulars: hTRPV1 in 1321N1 cells, 0.05 μM capsaicin. As for the experimental part:
Dulbecco's modified Eagle medium (D-MEM) (with 4.5 mg/mL glucose) and fetal bovine serum were obtained from Hyclone Laboratories, Inc. (Logan, Utah). Dulbecco's phosphate-buffered saline (D-PBS) (with 1 mg/mL glucose and 3.6 mg/l Na pyruvate, without phenol red), L-glutamine, hygromycin B, and Lipofectamine® were obtained from Life Technologies (Grand Island, N.Y.). G418 sulfate was obtained from Calbiochem-Novabiochem Corp. (San Diego, Calif.). Capsaicin (8-methyl-N-vanillyl-6-nonenamide) was obtained from Sigma-Aldrich, Co. (St. Louis, Mo.). Fluo-4 AM (N-[4-[6-[(acetyloxy)methoxy]-2,7-difluoro-3-oxo-3H-xanthen-9-yl]-2-[2-[2-[bis[2-[(acetyloxy)methoxy]-2-oxyethyl]amino]-5-methyl-phenoxy[ethoxy]phenyl]-N-[2-[(acetyloxy)methoxy]-2-oxyethyl]-glycine, (acetyloxy)methyl ester) was purchased from Molecular Probes (Eugene, Oreg.).
The cDNAs for the human TRPV1 receptor (hTRPV1) were isolated by reverse transcriptase-polymerase chain reaction (RT-PCR) from human small intestine poly A+ RNA supplied by Clontech (Palo Alto, Calif.) using primers designed surrounding the initiation and termination codons identical to the published sequences (Hayes et al. Pain 2000, 88, 205-215). The resulting cDNA PCR products were subcloned into pClneo mammalian expression vector (Promega) and fully sequenced using fluorescent dye-terminator reagents (Prism, Perkin-Elmer Applied Biosystems Division) and a Perkin-Elmer Applied Biosystems Model 373 DNA sequencer or Model 310 genetic analyzer. Expression plasmids encoding the hTRPV1 cDNA were transfected individually into 1321N1 human astrocytoma cells using Lipofectamine®. Forty-eight hours after transfection, the neomycin-resistant cells were selected with growth medium containing 800 μg/mL Geneticin (Gibco BRL). Surviving individual colonies were isolated and screened for TRPV1 receptor activity. Cells expressing recombinant homomeric TRPV1 receptors were maintained at 37° C. in D-MEM containing 4 mM L-glutamine, 300 μg/mL G418 (Cal-biochem) and 10% fetal bovine serum under a humidified 5% CO2 atmosphere.
The functional activity of compounds at the TRPV1 receptor was determined with a Ca^2+ influx assay and measurement of intracellular Ca^2+ levels ([Ca^2+]i). All compounds were tested over an 11-point half-log concentration range. Compound solutions were prepared in D-PBS (4× final concentration), and diluted serially across 96-well v-bottom tissue culture plates using a Biomek 2000 robotic automation workstation (Beckman-Coulter, Inc., Fullerton, Calif.). A 0.2 μM solution of the TRPV1 agonist capsaicin was also prepared in D-PBS. The fluorescent Ca^2+ chelating dye Fluo-4 AM was used as an indicator of the relative levels of [Ca^2+]i in a 96-well format using a Fluorescence Imaging Plate Reader (FLIPR)(Molecular Devices, Sunnyvale, Calif.). Cells were grown to confluency in 96-well black-walled tissue culture plates. Then, prior to the assay, the cells were loaded with 100 μL per well of Fluo-4 AM (2 μM, in D-PBS) for 1-2 hours at 23° C. Washing of the cells was performed to remove extracellular Fluo-4 AM (2×1 mL D-PBS per well), and afterward, the cells were placed in the reading chamber of the FLIPR instrument. 50 μL of the compound solutions were added to the cells at the 10 second time mark of the experimental run. Then, after a 3-minute time delay, 50 μL of the capsaicin solution was added at the, 190 second time mark (0.05 μM final concentration)(final volume=200 μL) to challenge the TRPV1 receptor. Time length of the experimental run was 240 seconds. Fluorescence readings were made at 1 to 5 second intervals over the course of the experimental run. The peak increase in relative fluorescence units (minus baseline) was calculated from the 190 second time mark to the end of the experimental run, and expressed as a percentage of the 0.05 μM capsaicin (control) response. […]

Data set [2] can be described thus: Rat telemetry protocol, core body temperature. The class given is in vivo. Particulars: core body temperature of rats one hour post dosing, 100 μmol/kg p.o., relative to vehicle. The method, then:
Male, Sprague Dawley rats, 225-250 grams were anesthetized with Sevoflurane (Abbott Laboratories). Rats were placed on a heating pad and covered with a sterile surgical drape. A ventral midline abdominal incision was made and sterile cotton tip applicators were used to gently move internal tissue and expose the abdominal aorta for implantation of the telemetry catheter (Data Sciences International; TL11M2-050-PXT). Blood flow was temporarily stopped to the lower extremities (5-7 min) with Diffenbach clamps to allow the insertion of the telemetry catheter into the abdominal aorta. Once inserted, a sterile cellulose patch was placed over the catheter/aorta and secured using a small amount of tissue adhesive (Vetbond, 3M). Once catheter placement was complete, the clamps were removed and blood flow was restored to the lower extremities. Thetransmitter was placed in the intraperitoneal cavity. The transmitter suture rib was sewn into the abdominal sutures to secure it in place. The skin was closed using sterile wound clips and the animal removed from Sevoflurane. Buprenex ([…] s.c.; Phoenix) was administered for post-operative analgesia. Animals were maintained on a heating pad until ambulatory, and then individually housed with food and water ad lib. Surgical staples were removed after 7-10 days post-implantation. Rats were allowed a 2-week post-surgical recovery period before treatment with test compound. Oral dosing (p.o.) was at time zero, with rats receiving a single dose of vehicle (10% EtOH, 20% Tween-80, 70% PEG-400) or a 100 μmol/kg dose of compound dissolved in vehicle. Temperature measurements were recorded every 15 minutes for the duration of the study (24 hours).
Representative compounds described herein have the novel property of having limited transient temperature effect on core body temperature of a mammal (e.g. rats). For example, compounds tested alter core body temperature of rats by less than about +0.5° C. at about 1 hour after administration of a single dose (100 μmol/kg) of the test compounds orally, for example, in the range from about −2.5° C. to less than about +0.5° C., from about −0.5° C. to less than about +0.5° C.; or from about −0.3° C. to about +0.3° C.
The term “core body temperature” as used herein, means the temperature measured in the intraperitoneal cavity.

Another data set has as its target T2, CYP2C9 (Homo sapiens, UniProt P11712).
T2 construct: human liver microsomes (BD Gentest); tissue BD Gentest; host or cells: human liver microsomes
Put plainly: CYP2C9 inhibition assay. In kind it is in vitro ADME. Particulars: pH 7.4, probe Luciferin-H (100 μM final), human liver microsomes, substrate Luciferin-H, read-out: CYP2C9 % inh @ 2.2 μM. The method, then: Stock solutions of test compounds were assayed in 96-well format for their ability to inhibit CYP2C9, CYP2D6, or CYP3A4 mediated metabolism of test substrates. Luciferin-H was used as the substrate for CYP2C9; 3-[2-(N,N-diethyl-N-methylammonium)ethyl]-7-methoxy-4-methylcoumarin (AMMC) was used as the substrate for CYP2D6; 7-benzyloxyquiniline (BZQ) was used as the substrate for CYP3A4. For each subtype, positive controls (sulphaphenazole in the case of CYP2C9; quinidine in the case of CYP2D6, ketoconazole in the case of CYP3A4) were used to validate assay results run in duplicate.
Pre-Incubation Mixture Preparation for CYP2C9 and CYP2D6: A pre-incubation mixture was prepared by combining 100 mM phosphate buffer (9.12 mL; pH 7.4), human liver microsomes (BD Gentest, 240 itt; final concentration: 0.4 mg/mL), and 10 mM nicotinamide adenine dinucleotide phosphate in 65.4 mM MgCl2 hexahydrate (120 μL; final concentration: 125 μM and 818 μM, respectively). To this was mixture is added a ‘regeneration’ mixture (120 μL) of 333 mM glucose-6-phosphate and 40 U/mL glucose-6-phosphate dehydrogenase in 5 mM sodium citrate (final concentration: 4 mM, 0.5 U/mL, and 0.06 mM, respectively).
Substrate Mixture Preparation for CYP2C9: To a solution of 25 mM phosphate buffer, (2.16 mL, pH 7.4) was added 5 mM Luciferin-H (Promega P450 Glo Assay V8792, 240 μL; final solution concentration 0.5 mM, final assay concentration 100 μM).
CYP2C9 Inhibiton Assay: To each well in the assay plate containing varying concentrations of test compound or control compound in DMSO (10 μL) Pre-Incubation Mixture (40 itt) was added to the wells and the assay plate was pre-incubated for 10 minutes at 37° C., with shaking or rocking. CYP2C9 Substrate Mixture (10 μL) was added to all wells and the assay plate was incubated for an additional 25 minutes at 37° C., with shaking or rocking. Final DMSO concentration was 1%. Luciferin-H detection reagent (Promega kit V8792, 50 μL) was added to all wells. The plate was then vortexed at ambient temperature for between 20 minutes and 2 hours, and the luminescence of each well was then read and recorded.
For orientation: Liver microsomes are vesicles of endoplasmic reticulum, rich in cytochrome P450 enzymes.

T1 sequence (Q8NER1 whole entry): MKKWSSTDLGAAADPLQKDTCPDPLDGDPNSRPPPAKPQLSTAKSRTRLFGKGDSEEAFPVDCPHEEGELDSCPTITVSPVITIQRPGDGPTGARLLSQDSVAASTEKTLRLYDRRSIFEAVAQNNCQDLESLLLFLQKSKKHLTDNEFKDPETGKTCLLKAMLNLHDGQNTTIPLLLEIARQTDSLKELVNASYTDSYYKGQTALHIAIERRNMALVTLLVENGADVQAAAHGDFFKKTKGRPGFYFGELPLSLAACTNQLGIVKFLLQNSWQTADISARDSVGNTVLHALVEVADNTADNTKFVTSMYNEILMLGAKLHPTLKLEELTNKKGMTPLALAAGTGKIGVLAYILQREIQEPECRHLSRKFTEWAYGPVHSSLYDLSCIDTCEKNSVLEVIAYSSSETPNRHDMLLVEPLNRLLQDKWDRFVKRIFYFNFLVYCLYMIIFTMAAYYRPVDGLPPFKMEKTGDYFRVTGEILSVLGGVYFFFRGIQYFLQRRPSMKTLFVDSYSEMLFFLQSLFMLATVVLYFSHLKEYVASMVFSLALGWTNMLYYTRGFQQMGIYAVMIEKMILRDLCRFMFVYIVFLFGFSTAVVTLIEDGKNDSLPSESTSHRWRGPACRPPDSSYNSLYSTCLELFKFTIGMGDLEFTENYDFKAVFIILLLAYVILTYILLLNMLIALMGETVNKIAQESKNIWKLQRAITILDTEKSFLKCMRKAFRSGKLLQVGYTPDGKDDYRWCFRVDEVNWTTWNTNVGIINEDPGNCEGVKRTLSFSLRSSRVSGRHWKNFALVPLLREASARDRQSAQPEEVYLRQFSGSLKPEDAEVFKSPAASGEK
T2 sequence (P11712 whole entry): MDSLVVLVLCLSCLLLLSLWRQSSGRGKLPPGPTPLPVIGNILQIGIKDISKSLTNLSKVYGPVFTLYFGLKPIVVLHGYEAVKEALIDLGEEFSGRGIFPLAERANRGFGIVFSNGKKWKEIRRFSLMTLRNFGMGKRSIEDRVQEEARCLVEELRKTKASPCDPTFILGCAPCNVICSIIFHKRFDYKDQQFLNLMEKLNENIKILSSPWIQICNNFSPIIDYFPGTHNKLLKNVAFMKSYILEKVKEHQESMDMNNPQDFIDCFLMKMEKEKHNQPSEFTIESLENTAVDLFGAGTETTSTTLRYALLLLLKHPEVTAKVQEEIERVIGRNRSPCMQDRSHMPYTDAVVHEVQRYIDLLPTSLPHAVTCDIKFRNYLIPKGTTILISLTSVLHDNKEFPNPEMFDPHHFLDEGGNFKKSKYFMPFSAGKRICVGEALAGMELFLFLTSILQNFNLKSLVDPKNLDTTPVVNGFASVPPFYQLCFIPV

With `O=C(Nc1cccc2[nH]ncc12)N[C@@H]1CC2(CCC2)Oc2ccc(F)cc21` [Example 8, N-[(4R)-6-fluoro-3,3′,4,4′-tetrahydro-2′H-spiro[chromene-2,1′-cyclobutan]-4-yl]-N′-1H-indazol-4-ylurea], the concentration for half-maximal inhibition (IC50) in data set [1] came to 76 nM. Further, in data set [2], the “Δ Temp (° C.)” value turned out to be 0.1 °C.
In the same order, the values of `CCC1(CC)C[C@@H](NC(=O)Nc2cccc3c(C)nccc23)c2cc(F)ccc2O1` [Example 86, N-[(4R)-2,2-diethyl-6-fluoro-3,4-dihydro-2H-chromen-4-yl]-N′-(1-methylisoquinolin-5-yl)urea] are 10 nM and −1.7 °C.
In the same order, the values of `O=C(Nc1cccc2c1C[C@H](O)CC2)N[C@@H]1CC2(CCC2)Oc2ccc(F)cc21` [Example 6, N-[(4R)-6-fluoro-3,3′,4,4′-tetrahydro-2′H-spiro[chromene-2,1′-cyclobutan]-4-yl]-N′-[(7R)-7-hydroxy-5,6,7,8-tetrahydronaphthalen-1-yl]urea] are 28 nM and 0.2 °C.
In the same order, the values of `Cn1ncc2c(NC(=O)N[C@@H]3CC(CF)(CF)Oc4c(OC(F)(F)F)cccc43)cccc21` [Example 88, N-[(4R)-2,2-bis(fluoromethyl)-8-(trifluoromethoxy)-3,4-dihydro-2H-chromen-4-yl]-N′-(1-methyl-1H-indazol-4-yl)urea] are 9 nM and −0.3 °C.
Compound `Cn1ncc2c(NC(=O)N[C@@H]3CC4(CCC4)Oc4ccc(F)cc43)cccc21` [Example 7, N-[(4R)-6-fluoro-3,3′,4,4′-tetrahydro-2′H-spiro[chromene-2,1′-cyclobutan]-4-yl]-N′-(1-methyl-1H-indazol-4-yl)urea] displayed an IC50 in data set [1] of 78 nM. Also, the “Δ Temp (° C.)” value in data set [2] was 0.1 °C.
The matching figures for `O=C(Nc1cccc2[nH]ncc12)N[C@@H]1CCOc2c(OC(F)(F)F)cccc21` [Example 70, N-1H-indazol-4-yl-N′-[(4R)-8-(trifluoromethoxy)-3,4-dihydro-2H-chromen-4-yl]urea]: 5 nM and 0.3 °C.
In the same order, the values of `CCC1(CC)C[C@@H](NC(=O)Nc2cccc3[nH]ncc23)c2cc(F)ccc2O1` [Example 58, N-[(4R)-2,2-diethyl-6-fluoro-3,4-dihydro-2H-chromen-4-yl]-N′-1H-indazol-4-ylurea] are 19 nM and 0.3 °C.
The matching figures for `CCC1(CC)C[C@@H](NC(=O)Nc2cccc3c2cnn3C)c2cccc(F)c2O1` [Example 50, N-[(4R)-2,2-diethyl-8-fluoro-3,4-dihydro-2H-chromen-4-yl]-N′-(1-methyl-1H-indazol-4-yl)urea]: 35 nM and 0.1 °C.
Compound `CC1(C)C[C@@H](NC(=O)Nc2cccc3cnc(N)cc23)c2ccc(F)cc2O1` [Example 106, N-(3-aminoisoquinolin-5-yl)-N′-[(4R)-7-fluoro-2,2-dimethyl-3,4-dihydro-2H-chromen-4-yl]urea] registered an IC50 in data set [1] of 21 nM. The inhibition at 25 min, 2.2 µM on CYP2C9 came out at 13%. For the same compound, the “Δ Temp (° C.)” value in data set [2] was determined as 0.3 °C.
As to `CC1(C)C[C@@H](NC(=O)Nc2cccc3[nH]ncc23)c2ccc(C(F)(F)F)cc2O1` [Example 41, N-[(4R)-2,2-dimethyl-7-(trifluoromethyl)-3,4-dihydro-2H-chromen-4-yl]-N′-1H-indazol-4-ylurea], inhibition in data set [1] was half-maximal at 16 nM (IC50). In data set [2], the “Δ Temp (° C.)” value is −2.5 °C.
The matching figures for `CCCC1(CCC)C[C@@H](NC(=O)Nc2cccc3c2cnn3C)c2cccc(F)c2O1` [Example 67, N-[(4R)-8-fluoro-2,2-dipropyl-3,4-dihydro-2H-chromen-4-yl]-N′-(1-methyl-1H-indazol-4-yl)urea]: 18 nM and −0.2 °C.

In general, IC50 refers to the midpoint of a concentration-inhibition curve.

Source of the values: patent publication US8604053B2, “TRPV1 antagonists” (AbbVie Inc., priority 2008, dated 2013).
